Measurements taken from patent EP4707280A1, “1,4-CINEOLE DERIVATIVE AND INTERMEDIATE THEREOF, HERBICIDE CONTAINING SAID DERIVATIVE AS ACTIVE INGREDIENT, METHOD FOR USING HERBICIDE, AND METHOD FOR PREPARING AGROCHEMICAL COMPOSITION” (HOKKO CHEMICAL INDUSTRY CO., LTD., priority 2023, dated 2024).

Legend:
Format in all cases: in vivo
[1] = system: Echinochloa crus-galli var. formosensis; assay: Test Example 1: herbicidal effect test by soil application in paddy rice; conditions: Echinochloa crus-galli, soil, 336 h; 120 g active ingredient per 10 ares; applied immediately after sowing, flooded pots; 14 days after application; read-out: weed inhibition rate
How it was run: (§1)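 Pre-emergence paddy soil application, 120 g a.i./10 a, emulsifiable concentrate diluted in water, applied by dropper right after sowing. Seeds (30/species) sown 0–1 cm in puddled, fertilized soil; flooded ~3 cm; glass greenhouse.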

Scirpus juncoides [2] = assay: as above; conditions: Schoenoplectiella juncoides, soil, 336 h; 120 g active ingredient per 10 ares; applied immediately after sowing, flooded pots; 14 days after application; read-out: weed inhibition rate
How it was run: as §1

Digitaria ciliaris [3] = assay: Test Example 4: herbicidal effect test by stem and leaf treatment in upland field; conditions: Digitaria ciliaris; 120 g per 10 ares; sprayed seven days after sowing, upland soil; 14 days after application; read-out: weed inhibition rate
Echinochloa crus-galli [4] = assay: as above; conditions: Echinochloa crus-galli; 120 g per 10 ares; sprayed seven days after sowing, upland soil; 14 days after application; read-out: weed inhibition rate
[5] = system: Echinochloa crus-galli var. formosensis; assay: Test Example 5: herbicidal effect test by soil application in paddy rice (low dose); conditions: Echinochloa crus-galli, soil, 336 h; 7.5 g per 10 ares; applied immediately after sowing, flooded pots; 14 days after application; read-out: weed inhibition rate
How it was run: (§2)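 Pre-emergence paddy test: seeds sown 0–1 cm (30 each), pots flooded ~3 cm, greenhouse. EC dilution dropped into water right after sowing, 7.5 g a.i./10 a. Duplicate pots; weed inhibition rate (%) by formula, day 14.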

Monochoria vaginalis = assay: as above; conditions: Pontederia vaginalis, 336 h, 7.5 g per 10 ares, applied immediately after sowing, flooded pots, 14 days after application, read-out: weed inhibition rate
How it was run: as §2

Scirpus juncoides [6] = assay: as above; conditions: Schoenoplectiella juncoides, 336 h, 7.5 g per 10 ares, applied immediately after sowing, flooded pots, 14 days after application, read-out: weed inhibition rate
How it was run: as §2

[7] = system: Echinochloa crus-galli var. formosensis; assay: Test Example 6: herbicidal effect test by application during growth period of paddy rice (low dose); conditions: Echinochloa crus-galli; 7.5 g per 10 ares; applied seven days after sowing, flooded pots; 14 days after application; read-out: weed inhibition rate
How it was run: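 Formulated compound, diluted in water, was dropped onto flooded pots seven days post-sowing at 7.5 g a.i. per 10 ares. Seeds had been sown 0-1 cm deep in puddled paddy soil under ~3 cm water in a glass greenhouse. Inhibition (%) assessed at 14 days; duplicate pots.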

Digitaria ciliaris [8] = assay: Test Example 7: herbicidal effect test by soil application in upland field (low dose); conditions: Digitaria ciliaris, 7.5 g per 10 ares, sprayed one day after sowing, 14 days after application, read-out: weed inhibition rate
How it was run: (§3)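 Read-out: weed inhibition rate (%) at 14 d post-treatment, duplicate pots per concentration. Seeds sown in the top 1 cm of upland alluvial loam; emulsifiable concentrate diluted in water and sprayed on the soil surface 1 d after sowing at 7.5 g a.i./10 a (100 L/10 a spray volume).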

Echinochloa crus-galli [9] = assay: as above; conditions: Echinochloa crus-galli, 7.5 g per 10 ares, sprayed one day after sowing, 14 days after application, read-out: weed inhibition rate
How it was run: as §3

CC(C)[C@]12C[C@@H](OCc3ccccc3Br)[C@](C)(CC1=O)O2 [2-13, (1R,4S,5R)-5-((2-bromobenzyl)oxy)-1-isopropyl-4-methyl-7-oxabicyclo[2.2.1]heptan-2-one]
≥ 80%: pest or weed control at 1200 g/ha [1] | pest or weed control at 1200 g/ha (Scirpus juncoides [2]) | inhibition at 1200 g/ha (Digitaria ciliaris [3]) | inhibition at 1200 g/ha (Echinochloa crus-galli [4]) | inhibition at 75 g/ha [5] | inhibition at 75 g/ha (Monochoria vaginalis) | inhibition at 75 g/ha (Scirpus juncoides [6]) | inhibition at 75 g/ha [7] | inhibition at 75 g/ha (Digitaria ciliaris [8]) | inhibition at 75 g/ha (Echinochloa crus-galli [9])

Cc1ccccc1CO[C@@H]1C[C@]2(C(C)C)O[C@@]1(C)C[C@@H]2I [1-741, (1S,2R,4R,5S)-5-iodo-1-methyl-2-[(2-methylphenyl)methoxy]-4-isopropyl-7-oxabicyclo[2.2.1]heptane]
≥ 80%: pest or weed control at 1200 g/ha [1] | pest or weed control at 1200 g/ha (Scirpus juncoides [2]) | inhibition at 1200 g/ha (Digitaria ciliaris [3]) | inhibition at 1200 g/ha (Echinochloa crus-galli [4]) | inhibition at 75 g/ha [5] | inhibition at 75 g/ha (Monochoria vaginalis) | inhibition at 75 g/ha (Scirpus juncoides [6]) | inhibition at 75 g/ha [7] | inhibition at 75 g/ha (Digitaria ciliaris [8]) | inhibition at 75 g/ha (Echinochloa crus-galli [9])

Cc1ccccc1CO[C@@H]1C[C@]2(C(C)C)O[C@@]1(C)CC2=O [2-3, (1R,4S,5R)-1-isopropyl-4-methyl-5-((2-methylbenzyl)oxy)-7-oxabicyclo[2.2.1]heptan-2-one]
≥ 80%: pest or weed control at 1200 g/ha [1] | pest or weed control at 1200 g/ha (Scirpus juncoides [2]) | inhibition at 1200 g/ha (Digitaria ciliaris [3]) | inhibition at 1200 g/ha (Echinochloa crus-galli [4]) | inhibition at 75 g/ha [5] | inhibition at 75 g/ha (Monochoria vaginalis) | inhibition at 75 g/ha (Scirpus juncoides [6]) | inhibition at 75 g/ha [7] | inhibition at 75 g/ha (Digitaria ciliaris [8]) | inhibition at 75 g/ha (Echinochloa crus-galli [9])

CC(C)[C@]12C[C@@H](OCc3ccccc3F)[C@](C)(C[C@H]1C)O2 [1-94, (1S,2R,4R,5R)-2-[(2-fluorophenyl)methoxy]-1,5-dimethyl-4-isopropyl-7-oxabicyclo[2.2.1]heptane]
≥ 80%: pest or weed control at 1200 g/ha [1] | pest or weed control at 1200 g/ha (Scirpus juncoides [2]) | inhibition at 1200 g/ha (Digitaria ciliaris [3]) | inhibition at 1200 g/ha (Echinochloa crus-galli [4]) | inhibition at 75 g/ha [5] | inhibition at 75 g/ha (Monochoria vaginalis) | inhibition at 75 g/ha (Scirpus juncoides [6]) | inhibition at 75 g/ha [7] | inhibition at 75 g/ha (Digitaria ciliaris [8]) | inhibition at 75 g/ha (Echinochloa crus-galli [9])

CO[C@H]1C[C@]2(C)O[C@@]1(C(C)C)C[C@H]2OCc1ccccc1F [1-156, (1S,2R,4R,5S)-2-((2-fluorobenzyl)oxy)-4-isopropyl-5-methoxy-1-methyl-7-oxabicyclo[2.2.1]heptane]
≥ 80%: pest or weed control at 1200 g/ha [1] | pest or weed control at 1200 g/ha (Scirpus juncoides [2]) | inhibition at 1200 g/ha (Digitaria ciliaris [3]) | inhibition at 1200 g/ha (Echinochloa crus-galli [4]) | inhibition at 75 g/ha [5] | inhibition at 75 g/ha (Monochoria vaginalis) | inhibition at 75 g/ha (Scirpus juncoides [6]) | inhibition at 75 g/ha [7] | inhibition at 75 g/ha (Digitaria ciliaris [8]) | inhibition at 75 g/ha (Echinochloa crus-galli [9])

CC(C)[C@]12C[C@@H](OCc3ccsc3)[C@](C)(C[C@@H]1Br)O2 [1-722, (1S,2R,4R,5S)-5-bromo-1-methyl-4-isopropyl-2-(thiophen-3-ylmethoxy)-7-oxabicyclo[2.2.1]heptane]
≥ 80%: pest or weed control at 1200 g/ha [1] | pest or weed control at 1200 g/ha (Scirpus juncoides [2]) | inhibition at 1200 g/ha (Digitaria ciliaris [3]) | inhibition at 1200 g/ha (Echinochloa crus-galli [4]) | inhibition at 75 g/ha [5] | inhibition at 75 g/ha (Monochoria vaginalis) | inhibition at 75 g/ha (Scirpus juncoides [6]) | inhibition at 75 g/ha [7] | inhibition at 75 g/ha (Digitaria ciliaris [8]) | inhibition at 75 g/ha (Echinochloa crus-galli [9])

CC(C)[C@]12C[C@@H](OCc3ccccc3Cl)[C@](C)(C[C@@H]1Br)O2 [1-20, (1S,2R,4R,5S)-5-bromo-2-[(2-chlorophenyl)methoxy]-1-methyl-4-isopropyl-7-oxabicyclo[2.2.1]heptane]
≥ 80%: pest or weed control at 1200 g/ha [1] | pest or weed control at 1200 g/ha (Scirpus juncoides [2]) | inhibition at 1200 g/ha (Digitaria ciliaris [3]) | inhibition at 1200 g/ha (Echinochloa crus-galli [4]) | inhibition at 75 g/ha [5] | inhibition at 75 g/ha (Monochoria vaginalis) | inhibition at 75 g/ha (Scirpus juncoides [6]) | inhibition at 75 g/ha [7] | inhibition at 75 g/ha (Digitaria ciliaris [8]) | inhibition at 75 g/ha (Echinochloa crus-galli [9])
